Assay results from patent US10308660B2, “Compounds and compositions for inhibiting the activity of SHP2” (Novartis AG, priority 2015, dated 2019).

Molecular target: SHP2 (Homo sapiens (Human), UniProt Q06124)
Assay: SHP2 allosteric inhibition assay (DiFMUP prompt fluorescence)
Format: biochemical
Settings: 0.5 nM SHP2 activated with 0.5 μM peptide IRS1_pY1172(dPEG8)pY1222; substrate DiFMUP; 25° C.

Chain of SHP2 (Q06124 whole entry): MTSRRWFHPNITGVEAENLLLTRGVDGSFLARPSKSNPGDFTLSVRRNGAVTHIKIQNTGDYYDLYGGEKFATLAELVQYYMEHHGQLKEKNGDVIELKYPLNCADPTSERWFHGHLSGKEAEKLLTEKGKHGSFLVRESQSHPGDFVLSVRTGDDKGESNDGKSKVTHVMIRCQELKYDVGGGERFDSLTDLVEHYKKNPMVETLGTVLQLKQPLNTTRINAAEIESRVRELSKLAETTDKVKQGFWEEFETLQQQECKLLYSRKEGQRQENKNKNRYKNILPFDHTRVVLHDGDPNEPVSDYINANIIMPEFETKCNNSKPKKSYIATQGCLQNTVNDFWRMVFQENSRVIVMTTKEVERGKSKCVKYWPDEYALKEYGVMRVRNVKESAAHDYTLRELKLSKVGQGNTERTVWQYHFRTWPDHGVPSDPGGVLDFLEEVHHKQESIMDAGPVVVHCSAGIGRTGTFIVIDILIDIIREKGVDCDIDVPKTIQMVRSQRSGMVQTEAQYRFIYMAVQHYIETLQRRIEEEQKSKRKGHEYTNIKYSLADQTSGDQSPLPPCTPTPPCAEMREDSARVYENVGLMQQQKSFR

| SMILES | IC50 |
| --- | --- |
| C[C@@H]1OCC2(CCN(c3nc(N)c(Sc4cccc(N)c4Cl)c(=O)n3C)CC2)[C@@H]1N [Example 25] | 38 nM |
| C[C@@H]1OCC2(CCN(c3nc(N)c(-c4ccc(OCc5ccccc5)cc4)c(=O)n3C)CC2)[C@@H]1N [Example 149] | 43 nM |
| CCOc1nccc(Sc2cnc(N3CCC4(CC3)CO[C@@H](C)[C@H]4N)[nH]c2=O)c1Cl [Example 95] | 23 nM |
| C[C@H]1C[C@@H](N)C2(CCN(c3nc(N)c(-c4ccc(Cl)cc4)c(=O)n3C)CC2)C1 [Example 172] | 174 nM |
| C[C@H]1C[C@@H](N)C2(CCN(c3nc(N)c(Sc4cccnc4Cl)c(=O)n3C)CC2)C1 [Example 66] | 20 nM |
| C[C@H]1C[C@@H](N)C2(CCN(c3nc(N)c(-c4ccccc4)c(=O)n3C)CC2)C1 [Example 140] | 25 nM |
| C[C@@H]1OCC2(CCN(c3ccc(Sc4cccc(Cl)c4Cl)c(=O)[nH]3)CC2)[C@@H]1N [Example 120] | 15 nM |
| C[C@@H]1OCC2(CCN(c3nc(N)c(-c4ccccc4)c(=O)n3C)CC2)[C@@H]1N [Example 138] | 24 nM |
| C[C@@H]1OCC2(CCN(c3nc(N)c(Sc4cc(N)nc(Cl)c4Cl)c(=O)n3C)CC2)[C@@H]1N [Example 19] | 14 nM |
| C[C@@H]1CC2(CCN(c3nc(N)c(-c4ccccc4)c(=O)n3C)CC2)[C@H](N)C1(F)F [Example 165] | 78 nM |
| Cn1c(N2CCC(C)(CN)CC2)nc(N)c(Sc2ccc(Cl)cc2Cl)c1=O [Example 56] | 170 nM |
| Cn1c(N2CCC(C)(CN)CC2)nc(N)c(Sc2cccc3ncccc23)c1=O [Example 24] | 299 nM |
| C[C@@H]1OCC2(CCN(c3ncc(Sc4ccnc(NC5CC5)c4Cl)c(=O)n3C)CC2)[C@@H]1N [Example 107] | 146 nM |
| COCCOc1ccc(-c2c(N)nc(N3CCC4(CC3)CO[C@@H](C)[C@H]4N)n(C)c2=O)cc1 [Example 170] | 169 nM |
| Cn1c(N2CCC(C)(CN)CC2)ncc(Sc2cccc(Cl)c2Cl)c1=O [Example 98, 2-(4-(aminomethyl)-4-methylpiperidin-1-yl)-5-((2,3-dichlorophenyl)thio)-3-methylpyrimidin-4(3H)-one] | 68 nM |
| C[C@@H]1OCC2(CCN(c3nc(N)c(Sc4ccnc(N)c4Cl)c(=O)n3C)CC2)[C@@H]1N [Example 3] | 44 nM |
| C[C@@H]1OCC2(CCN(c3nc(N)c(-c4ccc(-c5ccccc5)cc4)c(=O)n3C)CC2)[C@@H]1N [Example 168] | 107 nM |
| Cn1c(N2CCC(C)(CN)CC2)nc(N)c(Sc2cccc3ccccc23)c1=O [Example 55] | 45 nM |
| Cn1c(N2CCC3(CC2)C[C@@H](C(F)(F)F)C[C@H]3N)nc(N)c(Sc2cccnc2C(F)(F)F)c1=O [Example 84] | 72 nM |
| C[C@H]1CC2(CCN(c3nc(N)c(Sc4cccnc4C(F)(F)F)c(=O)n3C)CC2)[C@@H](N)[C@@H]1C(F)(F)F (single isomer, unassigned) [Example 64] | 856 nM |
| C[C@@H]1OCC2(CCN(c3nc(N)c(-c4ccc(OCC5CC5)cc4)c(=O)n3C)CC2)[C@@H]1N [Example 147] | 39 nM |
| COc1ccc(-c2c(N)nc(N3CCC4(CC3)CO[C@@H](C)[C@H]4N)n(C)c2=O)cc1Cl [Example 162] | 66 nM |
| C[C@@H]1OCC2(CCN(c3ncc(Sc4cccc(Cl)c4Cl)c(=O)[nH]3)CC2)[C@@H]1N [Example 97] | 9 nM |
| Cn1c(N2CCC3(CC2)CC(F)(F)C[C@H]3N)nc(N)c(Sc2cccnc2C(F)(F)F)c1=O [Example 43] | 18 nM |

| SMILES | IC50 |
| --- | --- |
| Cn1c(N2CCC(C)(CN)CC2)ncc(Sc2ccccc2Cl)c1=O [Example 99] | 375 nM |
| COc1cccc(Sc2cnc(N3CCC4(CC3)CO[C@@H](C)[C@H]4N)n(C)c2=O)c1Cl [Example 106] | 30 nM |
| C[C@@H]1OCC2(CCN(c3nc(N)c(-c4ccccc4Cl)c(=O)n3C)CC2)[C@@H]1N [Example 152] | 45 nM |
| COc1nccc(Sc2c(N)nc(N3CCC4(CC3)C[C@@H](C)C[C@H]4N)n(C)c2=O)c1Cl [Example 77] | 39 nM |
| COc1ccccc1-c1c(N)nc(N2CCC3(CC2)CO[C@@H](C)[C@H]3N)n(C)c1=O [Example 181] | 840 nM |
| Cc1nc(N2CCC3(CC2)CO[C@@H](C)[C@H]3N)n(C)c(=O)c1Sc1ccnc(N)c1Cl [Example 121, 5-((2-amino-3-chloropyridin-4-yl)thio)-2-((3S,4S)-4-amino-3-methyl-2-oxa-8-azaspiro[4.5]decan-8-yl)-3,6-dimethylpyrimidin-4(3H)-one] | 60 nM |
| CC1(CN)CCN(c2ncc(-c3cccc(Cl)c3Cl)c(=O)[nH]2)CC1 [Example 200] | > 100000 nM |
| C[C@@H]1OCC2(CCN(c3nc(N)c(-c4ccnc(Cl)c4)c(=O)n3C)CC2)[C@@H]1N [Example 187] | 2950 nM |
| COc1nccc(Sc2cnc(N3CCC4(CC3)CO[C@@H](C)[C@H]4N)n(C)c2=O)c1Cl [Example 105] | 8 nM |
| C[C@@H]1OCC2(CCN(c3nc(N)c(Sc4cccnc4OC(F)(F)F)c(=O)n3C)CC2)[C@@H]1N [Example 22] | 108 nM |
| C[C@@H]1OCC2(CCN(c3nc(N)c(-c4ccc(OC(F)(F)F)cc4)c(=O)n3C)CC2)[C@@H]1N [Example 169] | 119 nM |
| C[C@@H]1OCC2(CCN(c3nc(N)c(Sc4ccccc4Cl)c(=O)n3C)CC2)[C@@H]1N [Example 27] | 25 nM |
| Cn1c(N2CCC(C)(CN)CC2)ccc(Sc2cccc(Cl)c2Cl)c1=O [Example 116, 6-(4-(aminomethyl)-4-methylpiperidin-1-yl)-3-((2,3-dichlorophenyl)thio)-1-methylpyridin-2(1H)-one] | 1620 nM |
| Cn1c(N2CCC3(CCC[C@H]3N)CC2)ncc(Sc2cccc(Cl)c2Cl)c1=O [Example 109] | 26 nM |
| COc1ccccc1Sc1c(N)nc(N2CCC(C)(CN)CC2)n(C)c1=O [Example 47] | 206 nM |
| Cn1c(N2CCC3(CC2)C[C@@H](C(F)(F)F)C[C@H]3N)nc(N)c(-c2ccccc2)c1=O [Example 161] | 63 nM |
| C[C@@H]1OCC2(CCN(c3nc(N)c(-c4ccc(N5CCOCC5)cc4)c(=O)n3C)CC2)[C@@H]1N [Example 185] | 2120 nM |
| C[C@@H]1OCC2(CCN(c3ncc(Sc4ccnc(N)c4Cl)c(=O)n3C)CC2)[C@@H]1N [Example 113] | 35 nM |
| C[C@@H]1OCC2(CCN(c3nc(N)c(-c4ccc(C(C)(C)C)cc4)c(=O)n3C)CC2)[C@@H]1N [Example 174] | 183 nM |
| Cn1c(N2CCC(C)(CN)CC2)ncc(Sc2cccnc2C(F)(F)F)c1=O [Example 100] | 631 nM |
| N[C@@H]1CCCC12CCN(c1ncc(Sc3cccnc3C(F)(F)F)c(=O)[nH]1)CC2 [Example 92] | 92 nM |
| C[C@@H]1OCC2(CCN(c3nc(N)c(Sc4ccncc4C(F)(F)F)c(=O)n3C)CC2)[C@@H]1N [Example 61] | 93 nM |
| C[C@@H]1OCC2(CCN(c3nc(N)c(Sc4ccnc(C(F)(F)F)c4Cl)c(=O)n3C)CC2)[C@@H]1N [Example 59] | 43 nM |
| Cc1ncccc1Sc1c(N)nc(N2CCC3(CC2)CO[C@@H](C)[C@H]3N)n(C)c1=O [Example 80] | 68 nM |

| SMILES | IC50 |
| --- | --- |
| C[C@H]1C[C@@H](N)C2(CCN(c3nc(N)c(Sc4cc(N)nc(Cl)c4Cl)c(=O)n3C)CC2)C1 [Example 70] | 11 nM |
| C[C@@H]1CC2(CCN(c3nc(N)c(Sc4ccnc(N)c4Cl)c(=O)n3C)CC2)[C@@H](N)[C@H]1F (single isomer, unassigned) [Example 37] | 47 nM |
| CC(C)c1ccc(-c2c(N)nc(N3CCC4(CC3)CO[C@@H](C)[C@H]4N)n(C)c2=O)cc1 [Example 131] | 16 nM |
| CC1(CN)CCN(c2ccc(Sc3cccc(Cl)c3Cl)c(=O)[nH]2)CC1 [Example 118, 6-(4-(aminomethyl)-4-methylpiperidin-1-yl)-3-((2,3-dichlorophenyl)thio)pyridin-2(1H)-one] | 108 nM |
| C[C@@H]1OCC2(CCN(c3nc(N)c(-c4ccc(Cl)c(Cl)c4)c(=O)n3C)CC2)[C@@H]1N [Example 177] | 309 nM |
| C[C@@H]1OCC2(CCN(c3nc(N)c(Sc4cccc(N)c4C(F)(F)F)c(=O)n3C)CC2)[C@@H]1N [Example 31] | 20 nM |
| Cn1c(N2CCC3(CC2)COC[C@H]3N)ncc(Sc2cccc(Cl)c2Cl)c1=O [Example 101] | 37 nM |
| C[C@@H]1OCC2(CCN(c3nc(N)c(-c4cccc(C(F)(F)F)c4)c(=O)n3C)CC2)[C@@H]1N [Example 184] | 1690 nM |
| C[C@@H]1CC2(CCN(c3nc(N)c(Sc4cccnc4C(F)(F)F)c(=O)n3C)CC2)[C@H](N)C1(F)F [Example 33] | 40 nM |
| C[C@@H]1CC2(CCN(c3nc(N)c(-c4cccc(Cl)c4Cl)c(=O)n3C)CC2)[C@H](N)C1(F)F [Example 167] | 89 nM |
| COc1ccc(-c2c(N)nc(N3CCC4(CC3)CO[C@@H](C)[C@H]4N)n(C)c2=O)cc1 [Example 159] | 56 nM |
| C[C@@H]1OCC2(CCN(c3nc(N)c(-c4cccc(F)c4F)c(=O)n3C)CC2)[C@@H]1N [Example 143] | 28 nM |
| C[C@H]1C[C@@H](N)C2(CCN(c3nc(N)c(-c4ccc(SC(F)(F)F)cc4)c(=O)n3C)CC2)C1 [Example 134] | 19 nM |
| COc1ccc(Sc2c(N)nc(N3CCC4(CC3)CO[C@@H](C)[C@H]4N)n(C)c2=O)cc1F [Example 79] | 370 nM |
| C[C@H]1C[C@@H](N)C2(CCN(c3nc(N)c(-c4cccc(F)c4F)c(=O)n3C)CC2)C1 [Example 126] | 12 nM |
| Cn1c(N2CCC3(CC2)COC[C@H]3N)nc(N)c(Sc2ccnc(N)c2Cl)c1=O [Example 16] | 22 nM |
| Cn1c(N2CCC3(CC2)C[C@@H](C(F)(F)F)C[C@H]3N)nc(N)c(-c2cccc(Cl)c2Cl)c1=O [Example 148] | 43 nM |
| C[C@H]1C[C@@H](N)C2(CCN(c3ncc(Sc4cc(N)ncc4Cl)c(=O)n3C)CC2)C1 [Example 110] | 16 nM |
| Cn1c(N2CCC3(CC2)COC[C@H]3N)nc(N)c(-c2cccc(Cl)c2Cl)c1=O [Example 190] | 69 nM |
| C[C@@H]1OCC2(CCN(c3nc(N)c(-c4cccc(Cl)c4)c(=O)n3C)CC2)[C@@H]1N [Example 135] | 19 nM |
| C[C@@H]1OCC2(CCN(c3nc(N)c(-c4ccc(Cl)cc4)c(=O)n3C)CC2)[C@@H]1N [Example 136] | 20 nM |
| Cn1c(N2CCC3(CC2)C[C@H](F)C[C@H]3N)nc(N)c(-c2ccccc2)c1=O [Example 154] | 46 nM |
